Reference: patent publication US20080063628A1, “METHODS TO PROMOTE CELL DIFFERENTIATION” (priority 2006, published 2008)

System: amniotic fluid-derived cell line
Assay: Two sequential low dose trichostatin A treatments, gene expression by RT-PCR (Example 7)
Type: cell-based, human
Conditions: for Gata1 gene expression / HNF (HNF-3 beta) gene expression / Insulin gene expression / Pdx-1 gene expression / sox17 gene expression: 500 nM 0-24 h + 96-120 h
Protocol: Several cell lines obtained from different amniotic fluid specimens (see Example 14) and pancreas donors (see Example 13) were tested with similar results. Two lines at similar passage number but derived from different amniotic fluid specimens are shown in Table VII-A and Table VII-B for this example. One of these cell lines was also used in examples 2 and 4 above. In addition, this example also contains comparison data in Table VII-C and Table VII-D for a single pancreatic-derived stromal line grown to early and late passage number.
Amniotic fluid derived cells or pancreatic-derived stromal cells were seeded into 24-well tissue culture plates at a density of 5000/cm^2 and cultured in AMNIOMAX (Invitrogen) or DMEM with 10% FBS respectively under standard cell culture conditions until confluent. After the cells reached confluency, amniotic fluid derived cells were treated at time 0 hours with a dose of 500 nM trichostatin A, and pancreatic-derived stromal cells were treated with a dose of 1.25 μM trichostatin A solubilized in DMSO and medium. At time 24 hours, cell cultures underwent a complete medium change to remove all traces of trichostatin A. At time 96 hours, cell cultures were re-fed with fresh medium and received a second dose of trichostatin A at the same concentration as used previously. At time 120 hours, cell cultures again underwent a complete medium change and were cultured for an additional 24 hours or […] total incubation time.
Samples were taken daily for RT-PCR at the times indicated in Table VII-A to D. The culture medium was removed, and samples were rinsed in PBS then collected in RLT with β-mercaptoethanol (Qiagen). RNA was purified using the RNeasy Mini Kit (Qiagen) and RNA quantity and quality were determined using a spectrophotometer. cDNA was made using the iScript cDNA synthesis kit (BioRad).
Samples of 20 ng cDNA were used in each reaction to determine the expression levels of the following genes in amniotic fluid-derived cells: Gata1, HNF-3 beta, Pdx-1, insulin, and Sox17. Similarly, samples of 20 ng cDNA were used in each reaction to determine the expression level of the following genes in pancreatic-derived cells: glucagon, HNF-3 beta, insulin and Pdx-1. Real-Time PCR was performed on the Applied Biosystems 7500, and data was analyzed using the accompanying software according to the methods described in Example 15.
Real-time PCR amplifcation and quantitative analysis. Unless otherwise stated, all reagents were purchased from Applied Biosystems. Real-time PCR reactions were performed using the ABI PRISM™ 7500 Sequence Detection System. TAQMAN™ FAST UNIVERSAL PCR MASTER MIX™ (ABI, CA) was used with 20 ng of reverse transcribed RNA in a total reaction volume of 20 μl. Each cDNA sample was run in duplicate to allow correction of pipetting errors. Primers and FAM-labeled TAQMAN™ probes were used at concentrations of 200 nM. The level of expression for each target gene was normalized using the pre-developed Applied Biosystem's human glyceraldehyde-3-phosphate dehydrogenase (GAPDH) endogenous control kit. Primers and probes were designed using either ABI PRISM PRIMER EXPRESS™ software or a pre-developed ABI gene analysis kit. For each gene, either one of the primers or the probe were designed to be exon-boundary spanning. This eliminated the possibility of the primers/probe binding to any genomic DNA present. The primer and probe sets are listed as follows: Pdx-1 (Hs00426216), Insulin (Hs00355773), glucagon (Hs00174967), and FoxA2 (HNF 3-beta) (Hs00232764). The remaining primers were designed using the PRIMERS program (ABI, CA). After an initial 95° C. incubation for 20 sec, samples were cycled 40 times in two stages: a denaturation step at 95° C. for 3 sec, followed by an annealing/extension step at 60° C. for 30 sec. […]

SMILES: CC(/C=C/C(=O)NO)=C\[C@@H](C)C(=O)c1ccc(N(C)C)cc1 [trichostatin A]
- Insulin RT-PCR detection cycle (0.5 μM, by 48 hours (after removal at 24 h)): 36 cycles
- HNF-3 beta RT-PCR detection cycle (0.5 μM, following the first treatment): 33 cycles
- HNF-3 beta RT-PCR detection cycle (0.5 μM, following the second treatment): 37 cycles
- Pdx-1 RT-PCR detection cycle (0.5 μM, for 24 hours following the addition): 37 cycles
- Gata1 gene expression (24 hrs): nd (not detectable at >40 cycles by RT-PCR)
- HNF (HNF-3 beta) gene expression (24 hrs): +++ (detectable at less than 35 cycles by RT-PCR with SE less than 0.9)
- Insulin gene expression (24 hrs): nd (not detectable at >40 cycles by RT-PCR)
- Pdx-1 gene expression (24 hrs): + (detectable between 35 and 40 cycles by RT-PCR)
- sox17 gene expression (24 hrs): +++ (detectable at less than 35 cycles by RT-PCR with SE less than 0.9)
- Gata1 gene expression (48 hrs): nd (not detectable at >40 cycles by RT-PCR)
- HNF (HNF-3 beta) gene expression (48 hrs): +++ (detectable at less than 35 cycles by RT-PCR with SE less than 0.9)
- Insulin gene expression (48 hrs): + (detectable between 35 and 40 cycles by RT-PCR)
- Pdx-1 gene expression (48 hrs): nd (not detectable at >40 cycles by RT-PCR)
- sox17 gene expression (48 hrs): +++ (detectable at less than 35 cycles by RT-PCR with SE less than 0.9)
- Gata1 gene expression (72 hrs): nd (not detectable at >40 cycles by RT-PCR)
- HNF (HNF-3 beta) gene expression (72 hrs): + (detectable between 35 and 40 cycles by RT-PCR)
- Insulin gene expression (72 hrs): + (detectable between 35 and 40 cycles by RT-PCR)
- Pdx-1 gene expression (72 hrs): nd (not detectable at >40 cycles by RT-PCR)
- sox17 gene expression (72 hrs): +++ (detectable at less than 35 cycles by RT-PCR with SE less than 0.9)
- Gata1 gene expression (96 hrs): nd (not detectable at >40 cycles by RT-PCR)
- HNF (HNF-3 beta) gene expression (96 hrs): nd (not detectable at >40 cycles by RT-PCR)
- Insulin gene expression (96 hrs): + (detectable between 35 and 40 cycles by RT-PCR)
- Pdx-1 gene expression (96 hrs): nd (not detectable at >40 cycles by RT-PCR)
- sox17 gene expression (96 hrs): +++ (detectable at less than 35 cycles by RT-PCR with SE less than 0.9)
- Gata1 gene expression (120 hrs): nd (not detectable at >40 cycles by RT-PCR)
- HNF (HNF-3 beta) gene expression (120 hrs): + (detectable between 35 and 40 cycles by RT-PCR)
- Insulin gene expression (120 hrs): + (detectable between 35 and 40 cycles by RT-PCR)
- Pdx-1 gene expression (120 hrs): nd (not detectable at >40 cycles by RT-PCR)
- sox17 gene expression (120 hrs): +++ (detectable at less than 35 cycles by RT-PCR with SE less than 0.9)
- Gata1 gene expression (144 hrs): nd (not detectable at >40 cycles by RT-PCR)
- HNF (HNF-3 beta) gene expression (144 hrs): + (detectable between 35 and 40 cycles by RT-PCR)
- Insulin gene expression (144 hrs): + (detectable between 35 and 40 cycles by RT-PCR)
- Pdx-1 gene expression (144 hrs): nd (not detectable at >40 cycles by RT-PCR)
- sox17 gene expression (144 hrs): +++ (detectable at less than 35 cycles by RT-PCR with SE less than 0.9)
